“Also recorded” adds a separate entry of the source.
How the values were obtained:
Type in all cases: in vivo, human
[1] = system: adenocarcinoma and liver metastases, pancreatic cancer and bladder cancer; experiment: Phase II clinical studies IPSS-A04, IPSS-B013, IPSS-D002: anti-tumour activity
Excerpt: Title: Phase II—CHP as antitumour agent in patients with resected colorectal cancer and liver metastasis; 60 patients—Study IPSS-A04 (Example 12.1).
Title: Phase II—CHP in patients with locally advanced or metastatic pancreatic cancer—14 patients Study IPSS B013 (Example 12.2).
Title: Evaluation of safety and efficacy of CHP in patients with urogenital Cancer—25 patients—Study IPSS-D002 (Example 12.3).

[2] = system: patients with advanced cancer disease; experiment: Efficacy, safety and Quality of Life of 25 clinical cases with advanced cancer treated with oral and intravenous CHP
Excerpt: Example 11—Study Title: Evaluation of the Efficacy, Safety and Quality of Life (QoL) of 25 Clinical Cases in Patients with Advanced Cancer Disease Treated with Oral and Intravenous Formulations of Cis-4-Hydroxy-L-Proline (CHP)
25 patients (15 female and 10 male) have been treated with oral and/or intravenous CHP: • Mean age was over 60 years with maximum of 82 and minimum of 36 years. • 15 Patients considered as “elderly patients”—60-82 years (60%) • Patients 50-60 years (20%) • No further demographic data were documented. • Complete clinical case documents have been prepared for each patient.

[3] = Single ascending oral doses of CHP (Study 1001-68) and single IV dose (Study 0302-72): pharmacokinetics and safety in healthy volunteers
Excerpt: study title Safety, tolerability and pharmacokinetic profile of single ascending doses of oral cis-4-hydroxy-L-proline (CHP) in healthy volunteers Galmed study no. 1001-68-. Results FIGS. 3 and 4.
Study title: Single Dose Absolute Bioavailability (intravenous IV solution) and Safety Study of CHP in Healthy Volunteers-GALMED Study No: 0302-72. Results are in (FIGS. 5 and 6)
Six healthy volunteers (male, caucasian—18-45 years old) were recruited from the GCP-Galmed clinical centre. All healthy volunteers provided written informed consent prior to study participation. The study was approved by the independent Ethical Committee.
All volunteers were orally administered 2, 4, 6, 8, 10 and 12 grams of CHP with a wash out period of at least one week between doses of CHP.
The following blood and urine samples were collected for determination of the pharmacokinetics parameters of CHP and THP:
10 hours and immediately prior to administration of CHP (0 Hour), and at 0.25, 0.5, 1, 1.5, 2, 2.5, 3, 4, 5, 6, 12 and 24 hours after administration of CHP.
Urine was collected for the determination of the CHP and THP concentrations and the calculation of the elimination parameters of CHP and THP.
Six healthy volunteers (male, caucasian—18-45 years old) were recruited from the GCP-Galmed clinical centre. All healthy volunteers provided written informed consent prior to study participation. The study was approved by the independent Ethical Committee. Single doses of CHP were intravenously administered: 2.0 g, 4.0 g (2×2.0 g). Each dose level was administered to all healthy volunteers. There was a washout period of at least one week between doses.
The following safety parameters were determined at the pre- and post-study examinations: • 1. Vital signs • 2. Clinical laboratory: Blood chemistry, Haematology, Coagulation, Urinalysis • 3. Adverse events (Signs and Symptoms) have been recorded in each of the two treatment periods.

[4] = Pre-dose endogenous plasma concentrations of CHP and THP in healthy volunteers (Study 0202-71), HPLC; conditions: healthy subjects
Method: Example 8—Study Title: Determination of Pre-Dose Endogenous Concentrations of CHP in Healthy Volunteers (Study 0202 71) (FIG. 11)
According to the examples in this invention, the following ICH-GCP Clinical Phase I study has been performed in healthy subjects for the assessment of the pharmacokinetic profiles of CHP and THP and the determination of the pre-dose endogenous CHP blood plasma concentrations, which were measured for all healthy volunteers directly before CHP administration using a validated, sensitive and selective HPLC bioanalytical method.
Example 9—Study Title: Determination of Pre-Dose Endogenous Concentrations of THP in Healthy Volunteers (Study 0202 71)—(FIG. 11)
According to the examples in this invention, the following ICH-GCP Clinical Phase I study has been performed in healthy volunteers for the assessment of the pharmacokinetic profiles of THP and to determine the pre-dose endogenous THP plasma concentrations, which were measured for all healthy volunteers directly before CHP administration using a validated, sensitive and selective HPLC bioanalytical method. This was performed before both CHP administrations (i.e. for 2.0 g and 3.0 g). • The mean endogenous THP concentration in healthy subjects, calculated across all dose groups, was 0.97±1.15 μg CHP/ml of plasma.

[5] = healthy subjects, after oral administration of CHP 2 g-12 g

## O=C(O)[C@@H]1C[C@H](O)CN1 [CHP, cis-4-hydroxy-L-proline]
[1]
  Anti-tumour activity in patients: anti-tumour activities
[2]; 1-13 month, 2-22 gram/day CHP as monotherapy, 25 patients
  Tolerability of long-term treatment: well tolerated
[2]; 25 patients with advanced cancer, CHP monotherapy
  Toxic side effects, adverse events: No adverse events or side effects occurred were clinically relevant; also recorded: no toxic side effects or serious adverse events
[2]; advanced cancer patients treated with CHP
  Healing: In one case healing was achieved
[2]; advanced cancer, no progression, no ascites, no obstruction
  Course of disease in most of the patients: quite long time of stable disease
[3]; CHP administered orally and intravenously to healthy volunteers (Examples 3 and 4)
  Vital parameters, clinical chemistry, haematological and urinalysis findings: all within the normal range
[3]; [5]
  Oral clearance (average): 199.72 mL/min
  Volume of distribution (average): 63.94 L
[3]; healthy subjects, oral CHP doses 2 g-12 g
  Correlation of Cmax and AUC(0-∞) with dose: dose linearity
[3]; human, in vivo
  Metabolism by the liver microsomal enzyme system: isomerisation, hydroxylation and demethylation
[3]; male, human, in vivo, healthy subjects, after oral administration of CHP 2 g-12 g, read-out: Elimination half life (average) (converted)
  half-life: 3.7 h
[3]; male, human, in vivo, healthy subjects, after oral administration of CHP 2 g-12 g, read-out: Mean residence time (MRT) (average)
  MRT: 4.15 h
[3]; male, human, healthy subjects, plasma, after oral administration of CHP 2 g-12 g
  Tmax: 1.24 h
[4]; Study 0202-71
  Average Cmax, molar equivalent in blood: 462.2±212.1 μM CHP/ml blood
[4]; Study 0202-71, after CHP administration
  Average Cmax: 30.29±13.91 μg CHP/ml plasma

From patent US10328051B2, “Proline or proline derivatives for the treatment of dementia” (priority 2014, dated 2019)
